According to PubChem BioAssay (NCI):
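48-hour exposure; five concentrations; linearly interpolated endpoints. Definition used: TGI = concentration required for complete inhibition of growth.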

Columns and labels:
Test in all cases: NCI tumour cell line growth inhibition, 48 h
786-0 renal = test system: 786-0 renal
A498 renal = test system: A498 renal
A549 NSCLC = test system: A549 NSCLC
ACHN renal = test system: ACHN renal
CAKI-1 renal = test system: CAKI-1 renal
CCRF-CEM leukemia = test system: CCRF-CEM leukemia
COLO 205 colon = test system: COLO 205 colon
DLD-1 colon = test system: DLD-1 colon
DMS 114 small cell lung = test system: DMS 114 small cell lung
DMS 273 small cell lung = test system: DMS 273 small cell lung
EKVX NSCLC = test system: EKVX NSCLC
HCC-2998 colon = test system: HCC-2998 colon
HCT-15 colon = test system: HCT-15 colon
HL-60(TB) leukemia = test system: HL-60(TB) leukemia
HOP-62 NSCLC = test system: HOP-62 NSCLC
HOP-92 NSCLC = test system: HOP-92 NSCLC
HT29 colon = test system: HT29 colon
IGROV1 ovarian = test system: IGROV1 ovarian
K-562 leukemia = test system: K-562 leukemia
KM12 colon = test system: KM12 colon
KM20L2 colon = test system: KM20L2 colon
LOX IMVI melanoma = test system: LOX IMVI melanoma
M14 melanoma = test system: M14 melanoma
M19-MEL melanoma = test system: M19-MEL melanoma
MALME-3M melanoma = test system: MALME-3M melanoma
MOLT-4 leukemia = test system: MOLT-4 leukemia
NCI-H226 lung = test system: NCI-H226 lung
NCI-H23 lung = test system: NCI-H23 lung
NCI-H460 lung = test system: NCI-H460 lung
NCI-H522 lung = test system: NCI-H522 lung
OVCAR-3 ovarian = test system: OVCAR-3 ovarian
OVCAR-4 ovarian = test system: OVCAR-4 ovarian
OVCAR-5 ovarian = test system: OVCAR-5 ovarian
OVCAR-8 ovarian = test system: OVCAR-8 ovarian
RPMI-8226 leukemia = test system: RPMI-8226 leukemia
RXF 393 renal = test system: RXF 393 renal
RXF-631 renal = test system: RXF-631 renal
SF-268 CNS = test system: SF-268 CNS
SF-295 CNS = test system: SF-295 CNS
SF-539 CNS = test system: SF-539 CNS
SK-MEL-2 melanoma = test system: SK-MEL-2 melanoma
SK-MEL-28 melanoma = test system: SK-MEL-28 melanoma
SK-MEL-5 melanoma = test system: SK-MEL-5 melanoma
SK-OV-3 ovarian = test system: SK-OV-3 ovarian
SN12C renal = test system: SN12C renal
SNB-19 CNS = test system: SNB-19 CNS
SNB-75 CNS = test system: SNB-75 CNS
SNB-78 CNS = test system: SNB-78 CNS
SW-620 colon = test system: SW-620 colon
TK-10 renal = test system: TK-10 renal
U251 CNS = test system: U251 CNS
UACC-257 melanoma = test system: UACC-257 melanoma
UACC-62 melanoma = test system: UACC-62 melanoma
UO-31 renal = test system: UO-31 renal
XF 498 CNS = test system: XF 498 CNS
HCT-116 colon = test system: HCT-116 colon
HOP-18 NSCLC = test system: HOP-18 NSCLC
LXFL 529 NSCLC = test system: LXFL 529 NSCLC

S=C(Nc1ccccc1)N(/N=C/C=C/c1ccccc1)c1nnc(-c2ccccc2)c(-c2ccccc2)n1
TGI (786-0 renal): > 100 µM
TGI (A498 renal): > 100 µM
TGI (A549 NSCLC): > 100 µM
TGI (ACHN renal): > 100 µM
TGI (CAKI-1 renal): > 100 µM
TGI (CCRF-CEM leukemia): > 100 µM
TGI (COLO 205 colon): > 100 µM
TGI (DLD-1 colon): > 100 µM
TGI (DMS 114 small cell lung): > 100 µM
TGI (DMS 273 small cell lung): > 100 µM
TGI (EKVX NSCLC): > 100 µM
TGI (HCC-2998 colon): > 100 µM
TGI (HCT-15 colon): > 100 µM
TGI (HL-60(TB) leukemia): 52.4 µM
TGI (HOP-62 NSCLC): > 100 µM
TGI (HOP-92 NSCLC): 83.8 µM
TGI (HT29 colon): > 100 µM
TGI (IGROV1 ovarian): > 100 µM
TGI (K-562 leukemia): > 100 µM
TGI (KM12 colon): > 100 µM
TGI (KM20L2 colon): > 100 µM
TGI (LOX IMVI melanoma): > 100 µM
TGI (M14 melanoma): > 100 µM
TGI (M19-MEL melanoma): > 100 µM
TGI (MALME-3M melanoma): > 100 µM
TGI (MOLT-4 leukemia): > 100 µM
TGI (NCI-H226 lung): > 100 µM
TGI (NCI-H23 lung): > 100 µM
TGI (NCI-H460 lung): > 100 µM
TGI (NCI-H522 lung): > 100 µM
TGI (OVCAR-3 ovarian): > 100 µM
TGI (OVCAR-4 ovarian): > 100 µM
TGI (OVCAR-5 ovarian): > 100 µM
TGI (OVCAR-8 ovarian): > 100 µM
TGI (RPMI-8226 leukemia): > 100 µM
TGI (RXF 393 renal): > 100 µM
TGI (RXF-631 renal): > 100 µM
TGI (SF-268 CNS): > 100 µM
TGI (SF-295 CNS): > 100 µM
TGI (SF-539 CNS): > 100 µM
TGI (SK-MEL-2 melanoma): > 100 µM
TGI (SK-MEL-28 melanoma): > 100 µM
TGI (SK-MEL-5 melanoma): > 100 µM
TGI (SK-OV-3 ovarian): > 100 µM
TGI (SN12C renal): > 100 µM
TGI (SNB-19 CNS): > 100 µM
TGI (SNB-75 CNS): > 100 µM
TGI (SNB-78 CNS): > 100 µM
TGI (SW-620 colon): > 100 µM
TGI (TK-10 renal): > 100 µM
TGI (U251 CNS): > 100 µM
TGI (UACC-257 melanoma): > 100 µM
TGI (UACC-62 melanoma): > 100 µM
TGI (UO-31 renal): > 100 µM
TGI (XF 498 CNS): > 100 µM

Cc1ccc(NC(=O)C(=O)C(C(=O)c2ccc3ccccc3c2)C2OC(=O)c3ccccc32)cc1C (stereo unspecified)
TGI (786-0 renal): 23.8 µM
TGI (A498 renal): 31 µM
TGI (A549 NSCLC): 82.4 µM
TGI (ACHN renal): > 100 µM
TGI (CAKI-1 renal): 43.7 µM
TGI (CCRF-CEM leukemia): 51.3 µM
TGI (COLO 205 colon): 32.6 µM
TGI (DLD-1 colon): 36.7 µM
TGI (DMS 114 small cell lung): 41.3 µM
TGI (DMS 273 small cell lung): 30.3 µM
TGI (EKVX NSCLC): > 100 µM
TGI (HCC-2998 colon): 18.9 µM
TGI (HCT-116 colon): 25.5 µM
TGI (HCT-15 colon): 24.2 µM
TGI (HL-60(TB) leukemia): 44.9 µM
TGI (HOP-18 NSCLC): 21.7 µM
TGI (HOP-62 NSCLC): 35.7 µM
TGI (HOP-92 NSCLC): 40.6 µM
TGI (HT29 colon): > 100 µM
TGI (IGROV1 ovarian): 64 µM
TGI (K-562 leukemia): 59.7 µM
TGI (KM12 colon): 47.1 µM
TGI (KM20L2 colon): > 100 µM
TGI (LOX IMVI melanoma): 32.8 µM
TGI (LXFL 529 NSCLC): 22 µM
TGI (M14 melanoma): 32.2 µM
TGI (M19-MEL melanoma): 20.6 µM
TGI (MALME-3M melanoma): 57.8 µM
TGI (MOLT-4 leukemia): 25.9 µM
TGI (NCI-H226 lung): 11 µM
TGI (NCI-H23 lung): 18 µM
TGI (NCI-H460 lung): 51.4 µM
TGI (OVCAR-3 ovarian): 48.6 µM
TGI (OVCAR-4 ovarian): 40.6 µM
TGI (OVCAR-5 ovarian): 71.3 µM
TGI (OVCAR-8 ovarian): 66.2 µM
TGI (RPMI-8226 leukemia): 37.5 µM
TGI (SF-268 CNS): 52.8 µM
TGI (SF-539 CNS): 11.4 µM
TGI (SK-MEL-2 melanoma): 36.3 µM
TGI (SK-MEL-28 melanoma): 26.9 µM
TGI (SK-MEL-5 melanoma): 30 µM
TGI (SK-OV-3 ovarian): > 100 µM
TGI (SN12C renal): 44.8 µM
TGI (SNB-19 CNS): 21.3 µM
TGI (SNB-75 CNS): 7.34 µM
TGI (SW-620 colon): 63.7 µM
TGI (TK-10 renal): 94.6 µM
TGI (U251 CNS): 33.2 µM
TGI (UACC-257 melanoma): 42.4 µM
TGI (UACC-62 melanoma): 30.7 µM
TGI (UO-31 renal): 27.6 µM
TGI (XF 498 CNS): 18.2 µM

COC(=O)C(=Cc1cc(OC)ccc1OC)C(=O)OC
TGI (786-0 renal): 53.5 µM
TGI (A549 NSCLC): 92 µM
TGI (ACHN renal): 35.1 µM
TGI (CAKI-1 renal): 43.3 µM
TGI (CCRF-CEM leukemia): 61.8 µM
TGI (COLO 205 colon): 34.1 µM
TGI (DLD-1 colon): 91.3 µM
TGI (DMS 114 small cell lung): 53.1 µM
TGI (DMS 273 small cell lung): > 100 µM
TGI (EKVX NSCLC): 72.2 µM
TGI (HCC-2998 colon): 34 µM
TGI (HCT-15 colon): > 100 µM
TGI (HL-60(TB) leukemia): 59.1 µM
TGI (HOP-62 NSCLC): 64.1 µM
TGI (HOP-92 NSCLC): 60 µM
TGI (HT29 colon): 56.5 µM
TGI (IGROV1 ovarian): 56.9 µM
TGI (K-562 leukemia): 53.6 µM
TGI (KM12 colon): 42.8 µM
TGI (LOX IMVI melanoma): 50.1 µM
TGI (LXFL 529 NSCLC): 36 µM
TGI (M14 melanoma): 36.6 µM
TGI (M19-MEL melanoma): 79.5 µM
TGI (MALME-3M melanoma): 74.6 µM
TGI (MOLT-4 leukemia): > 100 µM
TGI (NCI-H226 lung): > 100 µM
TGI (NCI-H460 lung): 91.6 µM
TGI (NCI-H522 lung): 34.4 µM
TGI (OVCAR-3 ovarian): 50.6 µM
TGI (OVCAR-4 ovarian): 51.6 µM
TGI (OVCAR-5 ovarian): 61.5 µM
TGI (OVCAR-8 ovarian): > 100 µM
TGI (RPMI-8226 leukemia): 92.2 µM
TGI (RXF 393 renal): 31.3 µM
TGI (RXF-631 renal): 88.3 µM
TGI (SF-268 CNS): > 100 µM
TGI (SF-295 CNS): 82.1 µM
TGI (SF-539 CNS): 65.2 µM
TGI (SK-MEL-2 melanoma): 50.1 µM
TGI (SK-MEL-28 melanoma): 82.9 µM
TGI (SK-MEL-5 melanoma): 42.7 µM
TGI (SK-OV-3 ovarian): 76.2 µM
TGI (SN12C renal): 64.3 µM
TGI (SNB-19 CNS): > 100 µM
TGI (SNB-75 CNS): 97 µM
TGI (SNB-78 CNS): > 100 µM
TGI (SW-620 colon): 55.6 µM
TGI (TK-10 renal): 97.4 µM
TGI (U251 CNS): 42.9 µM
TGI (UACC-257 melanoma): 35.1 µM
TGI (UACC-62 melanoma): 73.7 µM
TGI (UO-31 renal): 50.9 µM
TGI (XF 498 CNS): 47.4 µM
